The values below come from publication PMC11784839, “Monoaminergic neurotransmitters are bimodal effectors of tau aggregation” (Science Advances, 2025).

The experiment addresses tau (Homo sapiens, UniProt P10636). As to the kind of experiment: MCE Phenols Library screening, tau biosensor cell seeding assay (AvZ). In kind it is cell-based. The settings on record: for AvZ (average z score of seeding, SDs from the mean level of seeding): 10 μM phenol in cell cultures, AD brain homogenate preincubated 16 hours, two biological replicates, positive = catalyzes seeding, negative = inhibits; for Z repl 1 / Z Repl 2: Z score; for Z repl 1 / raw data 1: replicate 1; for Z Repl 2 / raw data 2: replicate 2.

Setting [1] is: average puncta of the two replicates.
Setting [2] is: average Z score of the two replicates, MCE Phenols Library screen.
[3] abbreviates: average Z score of the two replicates, tau biosensor seeding, MCE Phenols Library screen.
Where [4] appears, read: average Z score of two replicates, Phenols Library screen.

tau, sequence (P10636 623-695 limits assumed): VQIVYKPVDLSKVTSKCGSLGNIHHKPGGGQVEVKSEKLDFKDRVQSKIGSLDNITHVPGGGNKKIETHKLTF

As for `COc1cc(CC(=O)C(=O)O)ccc1O` [Vanilpyruvic acid], the “AvZ (average z score of seeding, SDs from the mean level of seeding)” value (“AvZ” for short) is -0.352; the “Z repl 1” value is recorded as 0.039; the “Z Repl 2” value was -0.742. Moreover, the av puncta under setting [1] is 15824.3. For the setting “raw puncta”, the “raw data 1” value was found to be 26811.5 and the “raw data 2” value was 4837.1.
On to `C[C@@H]1O[C@@H](O[C@@H]2[C@@H](O)[C@H](OCCc3ccc(O)c(O)c3)O[C@H](CO)[C@H]2OC(=O)/C=C/c2ccc(O)c(O)c2)[C@H](O)[C@H](O)[C@H]1O` [Verbascoside], for which the “Z repl 1” value was -0.258 and the “Z Repl 2” value is reported as -1.055. The “av Z” value under setting [2] is -0.656. The av puncta under setting [1] came to 12378.6. Where the note is “puncta”, the “raw data 1” value amounted to 23255.9 and the “raw data 2” value was 1501.28.
Take `O=c1cc(-c2ccc(O)cc2)oc2c([C@@H]3O[C@H](CO)[C@@H](O)[C@H](O)[C@H]3O)c(O)c([C@@H]3OC[C@@H](O)[C@H](O)[C@H]3O)c(O)c12` [Vicenin-1]: the “Z repl 1” value was determined as 0.022 and the “Z Repl 2” value is reported as -0.802. Moreover, the “av Z” value under setting [2] was -0.39. Moreover, the av puncta under setting [1] was determined as 15407.7. Also, for the setting “raw puncta”, the “raw data 1” value came to 26610.5 and the “raw data 2” value is recorded as 4204.9.
As to `C[C@@H]1O[C@@H](Oc2cc(O)c3c(=O)c(O)c(-c4ccc(O)c(O)c4)oc3c2)[C@H](O)[C@H](O)[C@H]1O` [Vincetoxicoside B], the “Z repl 1” value is reported as -0.893 and the “Z Repl 2” value was -0.479. The “av Z” value under setting [2] was -0.686. Under setting [1], this compound gave an av puncta of 11642.8. Where the note is “puncta”, the “raw data 1” value amounted to 15632.1 and the “raw data 2” value stood at 7653.58.
In the case of `C[C@@H]1O[C@@H](O[C@@H]2[C@@H](O)[C@H](O)[C@@H](CO)O[C@H]2c2c(O)cc(O)c3c(=O)cc(-c4ccc(O)cc4)oc23)[C@H](O)[C@H](O)[C@H]1O` [Vitexin-2"-O-rhamnoside], the “Z repl 1” value is 0.246 and the “Z Repl 2” value is given as -0.753. For the same compound, under setting [2], the “av Z” value is -0.253. Under setting [1], this compound yielded an av puncta of 17015.1. For the same compound, where the note is “raw puncta”, the “raw data 1” value came out at 29301.6 and the “raw data 2” value is recorded as 4728.59.
As to `O=c1cc(-c2ccc(O)cc2)oc2c([C@@H]3O[C@H](CO)[C@@H](O[C@@H]4O[C@H](CO)[C@@H](O)[C@H](O)[C@H]4O)[C@H](O)[C@H]3O)c(O)cc(O)c12` [Vitexin-4''-O-glucoside], the “Z repl 1” value turned out to be 0.632 and the “Z Repl 2” value is on record as -0.232. Besides, for the setting “average Z score of the two replicates, tau seeding”, the “av Z” value amounted to 0.2. Where the note is “average of raw data 1 and 2”, this compound yielded an av puncta of 22113. For the same compound, for the setting “puncta”, the “raw data 1” value was found to be 33940.8 and the “raw data 2” value stood at 10285.2.
Take `COc1cc(O)c2c(c1)oc(=O)c1c3cc(O)c(O)cc3oc21` [Wedelolactone]: the “Z repl 1” value is listed as -0.852 and the “Z Repl 2” value is -1.136. Under setting [2], the “av Z” value was -0.994. In addition, for the setting “average of raw data 1 and 2”, the av puncta came out at 8376. Moreover, where the note is “puncta”, the “raw data 1” value is recorded as 16120.2 and the “raw data 2” value is given as 631.756.
In the case of `COc1c(O)cc(O)c2c(=O)cc(-c3ccccc3)oc12` [Wogonin], the “Z repl 1” value worked out at 0.851 and the “Z Repl 2” value amounted to 1.113. Further, the “av Z” value under setting [3] worked out at 0.982. In addition, the av puncta (average of raw data 1 and 2) is 30607.4. For the setting “puncta”, the “raw data 1” value was determined as 36560.6 and the “raw data 2” value came to 24654.2.
Take `COc1c(O[C@@H]2O[C@H](C(=O)O)[C@@H](O)[C@H](O)[C@H]2O)cc(O)c2c(=O)cc(-c3ccccc3)oc12` [Wogonoside]: the “Z repl 1” value is given as -0.039 and the “Z Repl 2” value is given as -0.756. Further, under setting [2], the “av Z” value is listed as -0.398. Under setting [1], this compound registered an av puncta of 15284.9. For the setting “raw puncta”, the “raw data 1” value came out at 25879 and the “raw data 2” value amounted to 4690.87.
`COc1ccc(-c2oc3c(CCC(C)(C)O)c(O)cc(O)c3c(=O)c2O)cc1` [Wushanicaritin]: the “Z repl 1” value is given as -0.889 and the “Z Repl 2” value is -0.335. The “av Z” value under setting [2] is -0.612. In addition, under setting [1], the av puncta worked out at 12429.8. Moreover, where the note is “puncta”, the “raw data 1” value was found to be 15671.6 and the “raw data 2” value was 9188.09.
As to `COc1cc(O)c(C(C)=O)c(OC)c1` [Xanthoxylin], the “AvZ” value was 0.65; the “Z repl 1” value came out at 0.422; the “Z Repl 2” value worked out at 0.877. For the same compound, the av puncta (average of raw data 1 and 2) is recorded as 26774.2. Besides, where the note is “puncta”, the “raw data 1” value was 31416.6 and the “raw data 2” value is 22131.8.
On to `O=C(O)c1cc(O)c2cccc(O)c2n1` [Xanthurenic acid], for which the “Z repl 1” value came out at 0.734 and the “Z Repl 2” value came to 1.586. In addition, under setting [3], the “av Z” value amounted to 1.16. For the setting “average of raw data 1 and 2”, the av puncta worked out at 32429.6. Moreover, where the note is “puncta”, the “raw data 1” value was 35156.1 and the “raw data 2” value was determined as 29703.1.
With `C[C@H]1CCCC(=O)CCCCCc2cc(O)cc(O)c2C(=O)O1` [Zearalanone], the “Z repl 1” value came to 0.089 and the “Z Repl 2” value is -0.477. Further, the “av Z” value under setting [4] is listed as -0.194. For the same compound, the av puncta (average of raw data 1 and 2) is reported as 17549.1. Also, under “puncta”, the “raw data 1” value was 27422.4 and the “raw data 2” value is given as 7675.78.
On to `C[C@H]1CCCC(=O)CCC/C=C/c2cc(O)cc(O)c2C(=O)O1` [Zearalenone], for which the “Z repl 1” value was -0.335 and the “Z Repl 2” value amounted to 0.423. The “av Z” value under setting [4] came to 0.044. The av puncta (average of raw data 1 and 2) was 19802.8. In addition, under “puncta”, the “raw data 1” value came out at 22326 and the “raw data 2” value was found to be 17279.6.
On to `CCCCC[C@H](O)CC(=O)CCc1ccc(O)c(OC)c1` [[6]-Gingerol], for which the “Z repl 1” value stood at 0.385 and the “Z Repl 2” value is on record as 0.874. This compound also came in with an av puncta (average of raw data 1 and 2) of 26534.4. For the setting “puncta”, the “raw data 1” value was 30973.3 and the “raw data 2” value is listed as 22095.4.
As for `CCCCCCC/C=C/C(=O)CCc1ccc(O)c(OC)c1` [[8]-Shogaol], the “AvZ” value is given as -0.665; the “Z repl 1” value is listed as -0.527; the “Z Repl 2” value is -0.802. This compound also displayed an av puncta under setting [1] of 12111.2. Moreover, for the setting “puncta”, the “raw data 1” value is on record as 20022.1 and the “raw data 2” value amounted to 4200.38.
For `CCCCCCCCC/C=C/C(=O)CCc1ccc(O)c(OC)c1` [[10]-Shogaol], the “Z repl 1” value is reported as -0.951 and the “Z Repl 2” value is -0.064. In addition, the av puncta under setting [1] is 13509. Moreover, for the setting “puncta”, the “raw data 1” value is 14936.2 and the “raw data 2” value turned out to be 12081.7.
With `COc1cc2oc3cc(O)c(OC)c(CC=C(C)C)c3c(=O)c2c(O)c1CC=C(C)C` [beta-Mangostin], the “Z repl 1” value is -0.244 and the “Z Repl 2” value is reported as -0.19. For the same compound, under setting [2], the “av Z” value is on record as -0.217. Further, the av puncta under setting [1] was found to be 17083.5. Moreover, for the setting “raw puncta”, the “raw data 1” value came out at 23425.5 and the “raw data 2” value stood at 10741.6.
With `O=C(O)C=Cc1ccc(O)cc1` [p-Coumaric acid], the “AvZ” value was -0.287; the “Z repl 1” value is given as -0.724; the “Z Repl 2” value amounted to 0.15. The same compound registered an av puncta under setting [1] of 16011.2. Besides, for the setting “raw puncta”, the “raw data 1” value came to 17659.3 and the “raw data 2” value was found to be 14363.1.
For `O=C(O)C(O)c1ccc(O)cc1` (stereo not drawn) [p-Hydroxymandelic acid], the “AvZ” value came to 1.127; the “Z repl 1” value amounted to 0.77; the “Z Repl 2” value was determined as 1.484. Also, the av puncta (average of raw data 1 and 2) was 32106.2. For the same compound, under “puncta”, the “raw data 1” value is 35598.4 and the “raw data 2” value is listed as 28613.9.
On to (+)-Usnic acid, for which the “Z repl 1” value was 0.232 and the “Z Repl 2” value is -0.478. Besides, the “av Z” value under setting [4] is -0.123. The compound also had an av puncta (average of raw data 1 and 2) of 18398.3. Moreover, for the setting “puncta”, the “raw data 1” value amounted to 29133.2 and the “raw data 2” value is listed as 7663.33.
As for Alpinetin, the “Z repl 1” value was -0.059 and the “Z Repl 2” value was -0.789. Moreover, under setting [2], the “av Z” value is reported as -0.424. Moreover, the av puncta under setting [1] is listed as 14986.7. Besides, under “raw puncta”, the “raw data 1” value was determined as 25635 and the “raw data 2” value came to 4338.39.
As to Bavachinin, the “Z repl 1” value is listed as 0.618 and the “Z Repl 2” value was -0.383. For the same compound, the “av Z” value under setting [4] came to 0.117. Besides, under “average of raw data 1 and 2”, the av puncta is listed as 21219.6. Under “puncta”, the “raw data 1” value was determined as 33763.9 and the “raw data 2” value is 8675.17.
As for Corylin, the “Z repl 1” value is -0.181 and the “Z Repl 2” value is on record as -0.689. Under setting [2], the “av Z” value is on record as -0.435. Under setting [1], the av puncta came to 14787.4. For the same compound, for the setting “raw puncta”, the “raw data 1” value is listed as 24170.2 and the “raw data 2” value is listed as 5404.62.
For Echinacoside, the “Z repl 1” value is recorded as 0.125 and the “Z Repl 2” value is listed as -0.609. Also, the “av Z” value under setting [2] is -0.242. Under setting [1], the av puncta is reported as 17056.9. Moreover, for the setting “raw puncta”, the “raw data 1” value was determined as 27847.2 and the “raw data 2” value was 6266.63.
With Engeletin, the “Z repl 1” value is reported as -1.222 and the “Z Repl 2” value is listed as -0.399. Further, the “av Z” value under setting [2] is recorded as -0.81. The av puncta (average of raw data 1 and 2) was 10092.3. Where the note is “puncta”, the “raw data 1” value stood at 11684.3 and the “raw data 2” value was 8500.41.
Regarding Gigantol, the “Z repl 1” value is recorded as -0.874 and the “Z Repl 2” value is -0.481. Further, the “av Z” value under setting [2] is -0.677. Also, under “puncta”, the “raw data 1” value turned out to be 15857.3 and the “raw data 2” value is listed as 7628.39.
As to Isoliquiritin apioside, the “Z repl 1” value is listed as 0.567 and the “Z Repl 2” value was -0.451. Under setting [4], the “av Z” value was determined as 0.058. This compound registered an av puncta (average of raw data 1 and 2) of 20550.8. Where the note is “puncta”, the “raw data 1” value was 33153.4 and the “raw data 2” value worked out at 7948.29.
